# Measured values as given in US8859605B2, “Cysteine protease inhibitors” (Medivir UK Ltd, priority 2009, dated 2014).
# Experiments:
# [1] = target: T1, human recombinant cathepsin K (Homo sapiens, UniProt P43235); experiment: Determination of cathepsin K proteolytic catalytic activity (H-D-Ala-Leu-Lys-AMC substrate); format: biochemical; conditions: read-out: Ki Cat. K
# T1 construct: made in house; host or cells: not fixed: E coli, Pichia or Baculovirus systems are named as options
# T1 sequence (P43235 115-329): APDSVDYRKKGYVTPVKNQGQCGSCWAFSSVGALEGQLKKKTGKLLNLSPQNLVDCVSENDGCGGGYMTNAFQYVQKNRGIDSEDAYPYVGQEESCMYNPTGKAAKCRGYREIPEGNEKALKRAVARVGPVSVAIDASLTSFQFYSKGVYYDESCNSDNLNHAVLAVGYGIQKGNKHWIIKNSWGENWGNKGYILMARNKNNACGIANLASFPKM
# Method: Determination of Cathepsin K Proteolytic Catalytic Activity
# Convenient assays for cathepsin K are carried out using human recombinant enzyme, such as that described in PDB. • ID BC016058 standard; mRNA; HUM; 1699 BP. • DE Homo sapiens cathepsin K (pycnodysostosis), mRNA (cDNA clone MGC:23107 • RX MEDLINE; RX PUBMED; 12477932. • DR RZPD; IRALp962G1234. • DR SWISS-PROT; P43235;
# The recombinant cathepsin K can be expressed in a variety of commercially available expression systems including E coli, Pichia and Baculovirus systems. The purified enzyme is activated by removal of the prosequence by conventional methods.
# Standard assay conditions for the determination of kinetic constants used a fluorogenic peptide substrate, typically H-D-Ala-Leu-Lys-AMC, and were determined in either 100 mM Mes/Tris, pH 7.0 containing 1 mM EDTA and 10 mM 2-mercaptoethanol or 100 mMNa phosphate, imM EDTA, 0.1% PEG4000 pH 6.5 or 100 mM Na acetate, pH 5.5 containing 5 mM EDTA and 20 mM cysteine, in each case optionally with […] as stabiliser. The enzyme concentration used was 5 nM. The stock substrate solution was prepared at 10 mM in DMSO. Screens were carried out at a fixed substrate concentration of 60 μM and detailed kinetic studies with doubling dilutions of substrate from 250 μM. The total DMSO concentration in the assay was kept below 3%. All assays were conducted at ambient temperature. Product fluorescence (excitation at 390 nm, emission at 460 nm) was monitored with a Labsystems Fluoroskan Ascent fluorescent plate reader. Product progress curves were generated over 15 minutes following generation of AMC product.
# (§1) Potential inhibitors are screened using the above assay with variable concentrations of test compound. Reactions were initiated by addition of enzyme to buffered solutions of substrate and inhibitor. Ki values were calculated according to equation 1.
# (§2) [formula] where v0 is the velocity of the reaction, V is the maximal velocity, S is the concentration of substrate with Michaelis constant of KM, and I is the concentration of inhibitor.
# human cathepsin L = human cathepsin L (Homo sapiens, UniProt P07711); experiment: Cathepsin L Ki (H-D-Val-Leu-Lys-AMC substrate); format: biochemical; conditions: pH 5.5, read-out: Ki Cat. L
# Method: The procedure above with the following amendments is used for the determination of Ki for cathepsin L.
# The enzyme is commercially available human cathepsin L (for example Calbiochem). The substrate is H-D-Val-Leu-Lys-AMC available from Bahcem. The assay buffer is 100 mM sodium acetate 1 mM EDTA, pH5.5) The DMSO stock (10 mM in 100% DMSO) is diluted to 10% in assay buffer. Enzyme is prepared at 5 nM concentration in assay buffer plus 1 mM dithiothreitol just before use. 2 μL of 10 mM inhibitor made up in 100% DMSO is dispensed into row A. 10 μL of 50 μM substrate (=1/200 dilution of 10 mM stock in DMSO, diluted in assay buffer).
# as §1, §2
# human cathepsin S = target: T2, human cathepsin S (Homo sapiens, UniProt P25774); experiment: Cathepsin S Ki determination (boc-Val-Leu-Lys-AMC fluorescent substrate); format: biochemical; conditions: baculovirus-expressed human cathepsin S, pH 6.5; read-out: Ki Cat. S
# T2 construct: made in house; host or cells: baculovirus expression system
# Method: Cathepsin S Ki Determination
# The assay uses baculovirus-expressed human cathepsin S and the boc-Val-Leu-Lys-AMC fluorescent substrate available from Bachem in a 384 well plate format, in which 7 test compounds can be tested in parallel with a positive control comprising a known cathepsin S inhibitor comparator.
# 280 μL/well of 12.5% DMSO are added to rows B-H of two columns of a 96 deep well polypropylene plate. 70 μL/well of substrate is added to row A. 2×250 μL/well of assay buffer (100 mM Na phosphate, 100 mM NaCl, pH 6.5) is added to row A, mixed, and double diluted down the plate to row H.
# 100 μL/well of assay buffer is added to columns 2-5 and 7-12 of 4 rows of a 96 well V bottom polypropylene plate. 200 μL/well of assay buffer is added to columns 1 and 6.
# 2 μl of each 10 mM test compound is added to a separate well on row A, columns 1-10. Add 90 μl assay buffer containing 1 mM DTT and 2 nM cathepsin S to each well of rows B-H and 180 μl to row A. Mix row A using a multichannel pipette and double dilute to row G. Mix row H and read in the fluorescent spectrophotometer.
# The second test compound is added to column 6 of the top row, the third to column 1 of the second row etc. Add 1 μL of comparator to column 6 of the bottom row. Mix column 1 and double dilute to column 5. Mix column 6 and double dilute to column 10. Using an 8-channel multistepping pipette set to 5×10 μL, distribute 10 μL/well of substrate to the 384 well assay plate. Distribute the first column of the substrate dilution plate to all columns of the assay plate starting at row A. The tip spacing of the multichannel pipette will correctly skip alternate rows. Distribute the second column to all columns starting at row B. Using a 12-channel multistepping pipette set to 4×10 μL, distribute 10 μL/well of inhibitor to the 384 well assay plate. Distribute the first row of the inhibitor dilution plate to alternate rows of the assay plate starting at A1. The tip spacing of the multichannel pipette will correctly skip alternate columns. Similarly, distribute the second, third and fourth rows to alternate rows and columns starting at A2, B1 and B2 respectively.
# Mix 20 mL assay buffer and 20 μL 1M DTT. Add sufficient cathepsin S to give 2 nM final concentration.
# Using the a distributor such as a Multidrop 384, add 30 μL/well to all wells of the assay plate and read in fluorescent spectrophotometer such as an Ascent.
# Fluorescent readings, (excitation and emission wavelengths 390 nm and 460 nm respectively, set using bandpass filters) reflecting the extent of enzyme cleavage of the fluorescent substrate, […] the inhibitor, are linear rate fitted for each well.
# Fitted rates for all wells for each inhibitor are fitted to the competitive inhibition equation using SigmaPlot 2000 to determine V, Km and Ki values.
# as §1, §2
# [2] = reference markers (passive transport, active transport, active efflux); cited from earlier work
# T2 sequence (P25774 115-331): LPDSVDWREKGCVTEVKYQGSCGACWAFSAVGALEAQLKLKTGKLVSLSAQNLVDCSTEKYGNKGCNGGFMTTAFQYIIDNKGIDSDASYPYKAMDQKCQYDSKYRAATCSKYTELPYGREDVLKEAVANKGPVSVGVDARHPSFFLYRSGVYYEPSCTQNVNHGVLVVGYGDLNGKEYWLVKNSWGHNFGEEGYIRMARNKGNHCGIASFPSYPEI
# Chain of human cathepsin L (P07711 114-333): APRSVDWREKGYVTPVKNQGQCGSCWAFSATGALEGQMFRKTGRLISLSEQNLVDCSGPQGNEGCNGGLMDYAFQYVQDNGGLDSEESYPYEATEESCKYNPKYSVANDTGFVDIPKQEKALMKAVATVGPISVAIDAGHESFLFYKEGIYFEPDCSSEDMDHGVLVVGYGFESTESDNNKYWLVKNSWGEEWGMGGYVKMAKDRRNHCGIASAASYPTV
SMILES,Ki [1] [µM],Ki (human cathepsin L) [µM],Ki (human cathepsin S) [µM],absorption in man (%) [2] [%]
"CCC(=O)N[C@@H](CC1(C)CCCC1)C(=O)N[C@]1(C(=O)C(=O)Nc2ccn(C)n2)C[C@@H](F)C1 [Example A1, N-[3-Fluoro-1-(1-methyl-1H-pyrazol-3-ylaminooxalyl)-cyclobutyl]-3-(1-methyl-cyclopentyl)-2-propionylamino-propionamide]",0.85,3.9,0.0008,–
CC(=O)N[C@@H](CC1(C)CCCC1)C(=O)NC1(C(=O)C(=O)Nc2ccn(C)n2)CCC1 [Example A6],0.58,5.2,0.00081,–
CC(=O)N[C@@H](CC1(C)CCC1)C(=O)NC1(C(=O)C(=O)Nc2ccn(C)n2)CC(F)(F)C1 [Example A13],0.34,0.87,0.0038,–
CC(=O)N[C@@H](CC(C)(C)C)C(=O)NC1(C(=O)C(=O)Nc2ccn(C)n2)CC(F)(F)C1 [Example A15],1.2,6.5,0.02,–
COC1CC(NC(=O)[C@H](CC2(C)CCCC2)NC(C)=O)(C(=O)C(=O)NC2CC2)C1 (stereo partly drawn) [Example A16],12,33,0.01,–
COC1CC(NC(=O)[C@H](CC2(C)CCCC2)NC(=O)CCl)(C(=O)C(=O)NC2CC2)C1 (stereo partly drawn) [Example A19],7.4,25,0.0056,–
CC(C)C(=O)N[C@@H](CC1(C)CCCC1)C(=O)NC1(C(=O)C(=O)Nc2ccn(C)n2)CC(F)(F)C1 [Example A25],1.1,2.3,0.001,–
N[C@@H](Cc1ccccc1)C(=O)O [L-Phenylalanine],–,–,–,100
OC[C@@H](O)[C@@H](O)[C@H](O)[C@H](O)CO [Mannitol],–,–,–,16
CN(Cc1cnc2nc(N)nc(N)c2n1)c1ccc(C(=O)N[C@@H](CCC(=O)O)C(=O)O)cc1 [Methotrexate],–,–,–,20

# More lines, main results first:
Ki [1] [µM],Ki (human cathepsin L) [µM],Ki (human cathepsin S) [µM],SMILES,absorption in man (%) [2] [%]
0.72,3.3,0.001,CC(C)C(=O)NC(CC1(F)CCCC1)C(=O)NC1(C(=O)C(=O)Nc2ccn(C)n2)CC(F)C1 (stereo not drawn) [Example A30],–
0.34,1.2,0.0018,COC1CC(NC(=O)[C@H](CC2(F)CCCC2)NC(=O)C(C)(C)C)(C(=O)C(=O)Nc2ccn(C)n2)C1 (stereo partly drawn) [Example A31],–
1.1,0.38,0.003,Cn1ccc(NC(=O)C(=O)C2(NC(=O)[C@H](CC3(F)CCCC3)NC(=O)C(F)F)CC(F)(F)C2)n1 [Example A36],–
0.64,1.8,0.003,[2H]C([2H])([2H])C(C(=O)N[C@@H](CC1(F)CCCC1)C(=O)NC1(C(=O)C(=O)Nc2ccn(C)n2)CC(F)(F)C1)(C([2H])([2H])[2H])C([2H])([2H])[2H] [Example A37],–
0.51,0.86,0.0012,"CCN(CC)C(=O)N[C@@H](CC1(C)CCCC1)C(=O)N[C@]1(C(=O)C(=O)Nc2ccn(C)n2)C[C@@H](F)C1 [Example U1, 2-(3,3-Diethyl-ureido)-N-[3-fluoro-1-(1-methyl-1H-pyrazol-3-ylaminooxalyl)-cyclobutyl]-3-(1-methyl-cyclopentyl)-propionamide]",–
1.3,2.2,0.0013,"CC(C)NC(=O)N[C@@H](CC1(F)CCCC1)C(=O)N[C@]1(C(=O)C(=O)Nc2ccn(C)n2)C[C@@H](F)C1 [Example U2, 3-(1-Fluoro-cyclopentyl)-N-[3-fluoro-1-(1-methyl-1H-pyrazol-3-ylaminooxalyl)-cyclobutyl]-2-(3-isopropyl-ureido)-propionamide]",–
0.62,2.1,0.00063,CCNC(=O)N[C@@H](CC1(F)CCCC1)C(=O)NC1(C(=O)C(=O)Nc2ccn(C)n2)CCC1 [Example U4],–
